From patent publication US4628089A, “Pyrido(2,3-D)pyrimidines” (Southern Research Institute, priority 1985, dated 1986)

Key:
[1] = system: lymphocytic leukemia P388; assay: Activity against lymphocytic leukemia P388 in mice; type: in vivo, mouse (CDF1 mice); details: ip, qd 1-5 days, 10^6 P388 cells ip, CDF1 mice
[2] = system: Human epidermoid carcinoma cell No. 2; assay: Cell culture cytotoxicity, inhibition of colony formation after 12 days; type: cell-based; details: 288 h, colony formation after 12 days in plastic flask, read-out: ED50 (concentration inhibiting colony formation by 50%)
Excerpt: ^a Human epidermoid carcinoma cell No. 2.
^c Concentrations inhibiting colony formation by 50% after 12 days as
determined in plastic flask.

[3] = system: mammalian dihydrofolate reductase; details: Grivsky et al., J. Med. Chem., 23, 327 (1980); cited from earlier work
[4] = system: thymidylate synthetase; details: background; cited from earlier work
[5] = system: dihydrofolate reductase; details: background; cited from earlier work
[6] = system: hypertensive rat; details: L. R. Bennett et al, J. Med. Chem., 24, 382 (1981); cited from earlier work

SMILES: CN(Cc1cnc2nc(N)nc(N)c2c1)c1ccc(C(=O)N[C@@H](CCC(=O)O)C(=O)O)cc1 [II (R = CH3), N-[4-[[(2,4-Diaminopyrido[2,3-d]pyrimidine-6-yl)methyl]methylamino]benzoyl]-L-glutamic acid]
- 30th day survivor ([1]; 4 mg/kg): One
- % ILS ([1]; 4 mg/kg): 92%
- IC50 [2]: 0.004 µM

SMILES: CCOC(=O)CC[C@H](NC(=O)c1ccc(NCc2cnc3nc(N)nc(N)c3c2)cc1)C(=O)OCC [VII (R = H; R1 = C2 H5), Diethyl N-[4-[(2,4-diaminopyrido[2,3-d]pyrimidine-6-yl)methylamino]benzoyl]-L-glutamate]
- % ILS ([1]; 1 mg/kg): 118%
- IC50 [2]: 0.052 µM

SMILES: COc1ccc(OC)c(Cc2cnc3nc(N)nc(N)c3c2C)c1
- inhibition of mammalian dihydrofolate reductase [3]: potent lipid-soluble inhibitor of mammalian dihydrofolate reductase

SMILES: Nc1nc2ncc(CNc3ccc(C(=O)N[C@@H](CCC(=O)O)C(=O)O)cc3)cc2c(=O)[nH]1 [I (R = H), N-[4-[(2-Amino-4(3H)-oxopyrido[2,3-d]pyrimidin-6-yl)methylamino]benzoyl]-L-glutamic Acid]
- % ILS ([1]; 100 mg/kg): 17%
- IC50 [2]: 6.1 µM

SMILES: CN(Cc1cnc2nc(N)[nH]c(=O)c2c1)c1ccc(C(=O)N[C@@H](CCC(=O)O)C(=O)O)cc1 [I (R = CH3), N-[4[[(2-amino-4(3H)-oxopyrido[2,3-d]-pyrimidin-6-yl)methyl]methylamino]benzoyl]-L-glutamic acid]
- % ILS ([1]; 200 mg/kg): 11%
- IC50 [2]: 11.2 µM

SMILES: C#CCN(Cc1ccc2nc(N)nc(O)c2c1)c1ccc(C(=O)N[C@@H](CCC(=O)O)C(=O)O)cc1 [5,8-dideaza-10-propargylfolic acid, N-[4-[N-[(2-amino-4-hydroxy-6-quinazolinyl)methyl]prop-2-ynylamino]benzoyl]-L-glutamic acid]
- inhibition of thymidylate synthetase [4]: potent inhibitor of thymidylate synthetase

SMILES: CN(Cc1cnc2nc(N)nc(N)c2n1)c1ccc(C(=O)N[C@@H](CCC(=O)O)C(=O)O)cc1 [Methotrexate, reference compound]
- IC50 [2]: 0.001 µM
- inhibition of dihydrofolate reductase [5]: Powerful dihydrofolate reductase inhibitors

SMILES: Nc1nc(N)c2cc(CNc3ccc(C(=O)N[C@@H](CCC(=O)O)C(=O)O)cc3)cnc2n1 [II (R = H), N-[4-[(2,4-Diaminopyrido[2,3-d]pyrimidine-6-yl)methylamino]benzoyl]-L-glutamic acid]
- IC50 [2]: 0.013 µM

SMILES: Cc1ncc2cc(-c3c(Cl)cccc3Cl)c(N)nc2n1
- blood pressure in the hypertensive rat [6]: lowered blood pressure
